System: proteins in HEK293T cells
Assay: MS-based mapping of FFF probe-modified peptides (isoTOP, sites of labeling)
Format: binding, human
How it was run: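 Live cells treated with fragment probes (200-250 μM) in serum-free DMEM, with or without competitor ligands. Proteomes clicked to light/heavy biotin-TEV-azide, streptavidin-enriched, trypsin- then TEV-digested; probe-modified peptides identified by LC-MS/MS with any residue allowed as modified site, isoTOP ratios quantified by CIMAGE.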

In the case of `C#CCCC1(CCC(=O)Nc2ccc(C3CCNCC3)cc2)N=N1` [probe 9, 3-(3-(But-3-yn-1-yl)-3H-diazirin-3-yl)-N-(4-(piperidin-4-yl)phenyl)propanamide], the “Labeled Peptide of HEXA Beta-hexosaminidase subuit alpha” value (Accession P06865, residues of probe-labeled peptide, family Enzymes) is reported as 489-499, the “Labeled Peptide of GAA Lysosomal alpha-glucosidase” value (Accession P10253, residues of probe-labeled peptide, family Enzymes) is reported as 855-870 and the “Labeled Peptide of GLB1 Beta-galactosidase” value (Accession P16278, residues of probe-labeled peptide, family Enzymes) is reported as 286-299. For the same molecule, the “Labeled Peptide” value (HEXA Beta-hexosaminidase subunit alpha, residues of probe-modified peptide) was 489-499, the “Labeled Peptide” value (HSP90B1 Endoplasmin, residues of probe-modified peptide) was 117-135 and the “Labeled Peptide” value (LGALS3BP Galectin-3-binding protein (Q08380), residues of the probe-labeled peptide) was 522-541. For the same molecule, the “Labeled Peptide” value (MAN2B1 Lysosomal alpha-mannosidase (O00754), residues of the probe-labeled peptide) was 614-638, the “Labeled Peptide” value (MAN2B2 Epididymis specific alpha-mannosidase (Q9Y2E5), residues of the probe-labeled peptide) was 642-664 and the “Labeled Peptide” value (NAGLU Alpha-N-acetylglucosaminidase (P54802), residues of the probe-labeled peptide) was 566-580. The “Labeled Peptide” value (P4HB Protein disulfide-isomerase (P07237), residues of the probe-labeled peptide) was 171-195, the “Labeled Peptide” value (P00338 LDHA L-lactate dehydrogenase A chain) was 43-57 and the “Labeled Peptide” value (P06865 HEXA Beta-hexosaminidase subunit alpha) was 489-499. The “Labeled Peptide” value (P07339 CTSD Cathepsin D) was 236-253, the “Labeled Peptide” value (P14625 HSP90B1 Endoplasmin) was 117-135 and the “Labeled Peptide” value (P16278 GLB1 Beta-galactosidase) was 286-299. For the same molecule, the “Labeled Peptide (residues) of SMYD3 SET and MYND domain-containing protein 3” value (Q9H7B4, peptide DQYCLECDCFR, PDB 5HQ8) was 255-265, the “Labeled Peptide” value (protein ATP1A1 (P05023), residues of probe-labeled peptide) was 894-911 and the “Labeled Peptide” value (protein C19orf6 Membralin (Q4ZIN3), residues of probe-labeled peptide) was 254-271. The “Labeled Peptide” value (protein CCT6A T-complex protein 1 subunit zeta (P40227), residues of probe-labeled peptide) was 400-424, the “Labeled Peptide” value (protein CLN5 Ceroid-lipofuscinosis neuronal protein 5 (O75503), residues of probe-labeled peptide) was 74-96 and the “Labeled Peptide” value (protein CPVL Probable serine carboxypeptidase CPVL (Q9H3G5), residues of probe-labeled peptide) was 195-208. For the same molecule, the “Labeled Peptide” value (protein CTSD Cathepsin D, residues of probe-labeled peptide) was 236-253, the “Labeled Peptide” value (protein CTSD Cathespin D (P07339), residues of probe-labeled peptide) was 236-253 and the “Labeled Peptide” value (protein DNASE2 Deoxyribonuclease-2-alpha (O00115), residues of probe-labeled peptide) was 173-202. The “Labeled Peptide” value (protein ECHDC1 Ethylmalonyl-CoA decarboxylase (Q9NTX5), residues of probe-labeled peptide) was 272-283, the “Labeled Peptide” value (protein EIF4H Eukaryotic translation initiation factor 4H (Q15056), residues of probe-labeled peptide) was 97-109 and the “Labeled Peptide” value (protein FARSB Phenylalanine--tRNA ligase beta subunit, residues of probe-labeled peptide) was 72-82. For the same molecule, the “Labeled Peptide” value (protein FARSB Phenylalanini--tRNA ligase beta subunit (Q9NSD9), residues of probe-labeled peptide) was 72-82, the “Labeled Peptide” value (protein GLB1 Beta-galactosidase, residues of probe-labeled peptide) was 286-299 and the “Labeled Peptide” value (protein LDHA L-lactate dehydrogenase A chain, residues of the probe-labeled peptide) was 43-57. The “Labeled Peptide” value (protein NAGLU Alpha-N-acetylglucosaminidase, residues of the probe-labeled peptide) was 566-580, the “Labeled Peptide” value (protein P4HB Protein disulfide-isomerase, residues of the probe-labeled peptide) was 171-195 and the “Labeled Peptide” value (protein P46977 STT3A Dolichyl-diphosphooligosaccharide--protein glycosy) was 572-595. The “Labeled Peptide” value (protein PCYOX1 Prenylcysteine oxidase 1 (Q9UHG3)) was 292-304, the “Labeled Peptide” value (protein PDIA4 Protein disulfide-isomerase A4 (P13667)) was 486-499 and the “Labeled Peptide” value (protein PHB Prohibitin (P35232)) was 220-239. The “Labeled Peptide” value (protein Q8IXU6 SLC35F2 Solute carrier family 35 member F2) was 188-221, the “Labeled Peptide” value (protein Q8TCJ2 STT3B Dolichyl-diphosphooligosaccharide--protein glycosy) was 651-674 and the “Labeled Peptide” value (protein Q9BVK6 TMED9 Transmembrane emp24 domain-containg protein 9) was 49-65. For the same molecule, the “Labeled Peptide” value (protein Q9H7B4 SMYD3 SET and MYND domain-containing protein 3) was 255-265, the “Labeled Peptide” value (protein Q92973 TNPO1 Transportin-1) was 273-298 and the “Labeled Peptide” value (protein RALA Ras-related protein Ral-A (P11233)) was 28-47. The “Labeled Peptide” value (protein SMYD3 SET and MYND domain-containing protein 3, residues of the probe-modified peptide) was 255-265 and the “Labeled Peptide” value (protein TNPO1 Transportin-1, residues of the probe-modified peptide) was 273-298.

Reference: patent publication US11535597B2, “Photoreactive ligands and uses thereof” (The Scripps Research Institute, priority 2017, dated 2022)
